Structures are written as SMILES.

T1 sequence (Q5S007 whole entry): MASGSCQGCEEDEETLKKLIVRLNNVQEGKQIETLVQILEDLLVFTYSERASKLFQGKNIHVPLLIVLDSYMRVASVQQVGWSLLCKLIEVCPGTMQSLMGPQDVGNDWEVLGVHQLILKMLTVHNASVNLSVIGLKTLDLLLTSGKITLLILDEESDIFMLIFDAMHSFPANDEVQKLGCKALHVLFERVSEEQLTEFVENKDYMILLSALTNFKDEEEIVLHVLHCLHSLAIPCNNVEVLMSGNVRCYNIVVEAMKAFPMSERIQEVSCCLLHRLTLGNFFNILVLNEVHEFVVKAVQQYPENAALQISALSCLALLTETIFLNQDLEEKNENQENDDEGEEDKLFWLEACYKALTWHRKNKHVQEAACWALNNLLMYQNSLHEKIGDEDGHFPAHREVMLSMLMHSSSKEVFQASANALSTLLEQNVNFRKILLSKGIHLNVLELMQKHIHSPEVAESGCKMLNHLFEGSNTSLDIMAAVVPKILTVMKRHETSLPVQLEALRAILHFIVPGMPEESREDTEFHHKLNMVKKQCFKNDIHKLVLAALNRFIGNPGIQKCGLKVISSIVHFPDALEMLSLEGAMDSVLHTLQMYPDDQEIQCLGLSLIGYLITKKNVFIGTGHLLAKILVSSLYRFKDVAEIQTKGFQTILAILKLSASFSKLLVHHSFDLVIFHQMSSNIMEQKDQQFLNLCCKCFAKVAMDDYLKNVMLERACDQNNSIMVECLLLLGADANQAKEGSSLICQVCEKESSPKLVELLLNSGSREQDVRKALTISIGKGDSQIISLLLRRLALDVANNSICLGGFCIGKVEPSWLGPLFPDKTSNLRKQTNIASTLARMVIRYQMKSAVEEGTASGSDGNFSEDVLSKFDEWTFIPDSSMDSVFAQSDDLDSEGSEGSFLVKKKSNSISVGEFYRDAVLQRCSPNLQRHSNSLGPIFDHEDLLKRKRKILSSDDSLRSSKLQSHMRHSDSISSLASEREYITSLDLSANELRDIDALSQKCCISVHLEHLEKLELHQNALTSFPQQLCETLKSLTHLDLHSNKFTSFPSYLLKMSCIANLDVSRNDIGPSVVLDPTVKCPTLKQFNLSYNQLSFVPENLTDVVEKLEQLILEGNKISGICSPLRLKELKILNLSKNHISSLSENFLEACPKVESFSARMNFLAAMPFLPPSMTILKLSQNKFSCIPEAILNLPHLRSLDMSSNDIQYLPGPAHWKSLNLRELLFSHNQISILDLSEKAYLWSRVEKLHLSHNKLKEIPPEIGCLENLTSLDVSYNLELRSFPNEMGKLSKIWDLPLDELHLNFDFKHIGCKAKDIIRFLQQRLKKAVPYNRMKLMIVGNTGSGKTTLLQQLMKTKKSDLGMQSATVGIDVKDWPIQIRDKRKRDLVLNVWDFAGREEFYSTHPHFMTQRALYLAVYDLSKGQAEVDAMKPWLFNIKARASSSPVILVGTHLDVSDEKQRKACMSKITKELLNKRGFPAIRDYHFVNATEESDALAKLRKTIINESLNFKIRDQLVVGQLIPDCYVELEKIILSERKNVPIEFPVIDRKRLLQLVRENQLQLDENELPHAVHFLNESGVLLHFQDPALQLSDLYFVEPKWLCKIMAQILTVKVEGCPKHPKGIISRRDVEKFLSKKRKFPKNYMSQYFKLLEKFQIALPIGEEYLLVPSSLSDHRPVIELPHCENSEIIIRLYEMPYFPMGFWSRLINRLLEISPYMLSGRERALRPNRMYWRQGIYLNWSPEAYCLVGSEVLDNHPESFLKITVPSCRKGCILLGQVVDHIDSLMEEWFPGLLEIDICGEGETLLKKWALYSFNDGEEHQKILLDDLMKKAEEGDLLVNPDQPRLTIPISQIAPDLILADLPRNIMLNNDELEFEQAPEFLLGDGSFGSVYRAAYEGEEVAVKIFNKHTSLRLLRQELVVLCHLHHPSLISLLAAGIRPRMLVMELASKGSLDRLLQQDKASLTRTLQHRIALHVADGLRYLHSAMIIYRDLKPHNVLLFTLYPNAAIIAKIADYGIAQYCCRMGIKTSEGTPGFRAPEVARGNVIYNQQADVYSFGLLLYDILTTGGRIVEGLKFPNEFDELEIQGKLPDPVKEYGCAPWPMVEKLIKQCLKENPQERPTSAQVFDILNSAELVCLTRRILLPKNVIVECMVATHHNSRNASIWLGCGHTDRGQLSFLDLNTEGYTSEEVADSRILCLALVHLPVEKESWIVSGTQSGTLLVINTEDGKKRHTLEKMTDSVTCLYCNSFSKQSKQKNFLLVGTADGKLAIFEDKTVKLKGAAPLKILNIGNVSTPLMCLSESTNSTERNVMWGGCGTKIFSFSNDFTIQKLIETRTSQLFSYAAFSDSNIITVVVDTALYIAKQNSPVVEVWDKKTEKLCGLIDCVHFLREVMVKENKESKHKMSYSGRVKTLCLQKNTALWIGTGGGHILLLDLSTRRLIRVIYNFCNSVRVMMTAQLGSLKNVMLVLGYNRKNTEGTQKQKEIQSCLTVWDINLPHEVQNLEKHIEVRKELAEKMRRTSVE

This assay addresses T1, recombinant LRRK2 kinase (Homo sapiens, UniProt Q5S007).
T1 construct: purchased Signal Chem, Richmond, BC, Canada
Nature of the assay: LRRK2 kinase inhibition (Kinase-Glo luminescence). It counts as biochemical. Particulars: IC50 grade; 25 μmol/L ATP, LRRKtide, 30° C. 2 hours; read-out: Enzyme activity LRRK2. The procedure: Upon completion of the reaction, an equal amount of Kinase-Glo (Promega, Madison, Wis.) solution was added thereto, followed by reaction for 40 minutes. A detection solution was added thereto, followed by further reaction at room temperature for 30 minutes. Then, IC50 of kinase was calculated by measuring the amount of luciferase using a microplate ELISA reader (Bio-Tek).
Take `CCCNc1nc(Nc2ccc(C(=O)N3CCOCC3)cc2OC)nc2[nH]cc(C#N)c12` [Example 12, 2-((2-methoxy-4-(morpholine-4-carbonyl)phenyl)amino)-4-(propylamino)-7H-pyrrolo[2,3-d]pyrimidine-5-carbonitrile]: the IC50 is less than 10 nM. As to `CCNc1nc(Nc2ccc(C(=O)N3CCO[C@@H](C)C3)cc2OC)nc2[nH]cc(C#N)c12` [Example 26, (S)-4-(ethylamino)-2-((2-methoxy-4-(2-methylmorpholine-4-carbonyl)phenyl)amino)-7H-pyrrolo[2,3-d]pyrimidine-5-carbonitrile], the IC50 is less than 10 nM. Then `CCNc1nc(Nc2ccc3c(c2)CN(C)C3=O)nc2[nH]cc(C(F)(F)F)c12` [Example 136, 5-((4-(ethylamino)-5-(trifluoromethyl)-7H-pyrrolo[2,3-d]pyrimidine-2-yl)amino)-2-methylisoindolin-1-one], with 10 to 100 nM; and `CCNc1nc(Nc2cc3c(cc2Cl)C(=O)N(C)C3)nc2[nH]cc(C#N)c12` [Example 128, 2-((6-chloro-2-methyl-1-oxoisoindol-5-yl)amino)-4-(ethylamino)-7H-pyrrolo[2,3-d]pyrimidine-5-carbonitrile], with greater than 100 nM; and `COc1cc(C(=O)N2CCC(N3CCOCC3)CC2)ccc1Nc1nc(OC(C)C)c2c(C#N)c[nH]c2n1` [Example 91, 4-isoprofoxy-2-((2-methoxy-4-(4-morpholinopiperidine-1-carbonyl)phenyl)amino)-7H-pyrrolo[2,3-d] pyrimidine-5-carbonitrile], with less than 10 nM. Then `CNc1nc(Nc2cc(F)c(C(=O)N3CCOCC3)cc2OC)nc2[nH]cc(C#N)c12` [Example 10, 2-((5-fluoro-2-methoxy-4-(morpholine-4-carbonyl)phenyl)amino)-4-(methylamino)-7H-pyrrolo[2,3-d]pyrimidine-5-carbonitrile], with less than 10 nM; and `CCNc1nc(Nc2cc3c(cc2OC)C(=O)N(C)C3)nc2[nH]cc(C(F)(F)F)c12` [Example 133, 5-((4-(ethylamino)-5-(trifluoromethyl)-7H-pyrrolo[2,3-d]pyrimidine-2-yl)amino)-6-methoxy-2-methylisoindolin-1-one], with less than 10 nM.

As for `COc1cc(C(=O)N2CCOCC2)ccc1Nc1nc(OC2CCOCC2)c2c(C#N)c[nH]c2n1` [Example 84, 2-((2-methoxy-4-(morpholine-4-carbonyl)phenyl)amino)-4-((tetrahydro-2H-pyran-4-yl)oxy)-7H-pyrrolo[2,3-d]pyrimidine-5-carbonitrile], the IC50 is less than 10 nM. On to `CNc1nc(Nc2cnn(C)c2C)nc2[nH]cc(C#N)c12` [Example 29, 6-((1,5-dimethyl-1H-pyrazole-4-yl)amino)-4-(methylamino)-1H-pyrrolo[2,3-b]pyrimidine-3-carbonitrile], for which the IC50 was 10 to 100 nM.

In the case of `COc1cc(C(=O)N2CCC(F)(F)CC2)ccc1Nc1nc(NC2(C)CC2)c2c(C#N)c[nH]c2n1` [Example 45, 2-((4-(4,4-difluoropiperidine-1-carbonyl)-2-methoxyphenyl)amino)-4-((1-methylcyclopropyl)amino)-7H-pyrrolo[2,3-d]pyrimidine-5-carbonitrile], the IC50 lay in the range of 10 to 100 nM. Then `CCNc1nc(Nc2cc3c(cc2OC)N(C)C(=O)C(C)(C)O3)nc2[nH]cc(C(F)(F)F)c12` [Example 137, 7-((4-(ethylamino)-5-(trifluoromethyl)-7H-pyrrolo[2,3-d]pyrimidine-2-yl)amino)-6-methoxy-2,2,4-trimethyl-2H-benzo[1,4]oxazine-3(4H)-one], with greater than 100 nM; and `COc1cc(C(=O)N2CCOCC2)c(F)cc1Nc1nc(NC2(C)CC2)c2c(C#N)c[nH]c2n1` [Example 37, 2-((5-fluoro-2-methoxy-4-(morpholine-4-carbonyl)phenyl)amino)-4-((1-methylcyclopropyl)amino)-7H-pyrrolo[2,3-d]pyrimidine-5-carbonitrile], with less than 10 nM; and `CCNc1nc(Nc2ccc(C(=O)N3CCO[C@H](C)C3)cc2OC)nc2[nH]cc(C#N)c12` [Example 25, (R)-4-(ethylamino)-2-((2-methoxy-4-(2-methylmorpholine-4-carbonyl)phenyl)amino)-7H-pyrrolo[2,3-d]pyrimidine-5-carbonitrile], with less than 10 nM. `CCNc1nc(Nc2sc(C(C)(C)C#N)nc2C)nc2[nH]cc(C#N)c12` [Example 132, 2-((2-(2-cyanopropane-2-yl)-4-methylthiazole-5-yl)amino)-4-(ethylamino)-7H-pyrrolo[2,3-d]pyrimidine-5-carbonitrile]: the IC50 is 10 to 100 nM.

In the case of `CCCNc1nc(Nc2cc(F)c(C(=O)N3CCOCC3)cc2OC)nc2[nH]cc(C#N)c12` [Example 14, 2-((5-fluoro-2-methoxy-4-(morpholine-4-carbonyl)phenyl)amino)-4-(propylamino)-7H-pyrrolo[2,3-d]pyrimidine-5-carbonitrile], the IC50 is 10 to 100 nM. Next, `CCNc1nc(Nc2ccc(C(=O)N3C[C@@H](C)O[C@@H](C)C3)cc2OC)nc2[nH]cc(C#N)c12` [Example 24, 2-((4-((2R,6S)-2,6-dimethylmorpholine-4-carbonyl)-2-methoxyphenyl)amino)-4-(ethylamino)-7H-pyrrolo[2,3-d]pyrimidine-5-carbonitrile]: less than 10 nM; `COc1cc(C(=O)N2CCC(N3CCOCC3)CC2)ccc1Nc1nc(OC2CCOCC2)c2c(C#N)c[nH]c2n1` [Example 85]: less than 10 nM. As to `CNc1nc(Nc2ccc(C(=O)N3CCOCC3)cc2OC)nc2[nH]cc(C(F)(F)F)c12` [Example 112, (3-methoxy-4-((4-(methylamino)-5-(trifluoromethyl)-7H-pyrrolo[2,3-d]pyrimidine-2-yl)amino)phenyl)(morpholino)methanone], the IC50 is 10 to 100 nM. As for `CCNc1nc(Nc2cc(F)c(C(=O)N3CCC(N4CCOCC4)CC3)cc2OC)nc2[nH]cc(C#N)c12` [Example 7, 4-(ethylamino)-2-((5-fluoro-2-methoxy-4-(4-morpholinopiperidine-1-carbonyl)phenyl)amino)-7H-pyrrolo[2,3-d]pyrimidine-5-carbonitrile], the IC50 was less than 10 nM. Next, `CCNc1nc(Nc2cc3c(cc2OC)CN(C)C3=O)nc2[nH]cc(C(F)(F)F)c12` [Example 134, 6-((4-(ethylamino)-5-(trifluoromethyl)-7H-pyrrolo[2,3-d]pyrimidine-2-yl)amino)-5-methoxy-2-methylisoindolin-1-one]: greater than 100 nM; `CC1(Oc2nc(Nc3cnn([C@H]4CCN(C5COC5)C[C@@H]4F)c3)nc3[nH]cc(C#N)c23)CC1` [Example 101, 2-((1-((3S,4S)-3-fluoro-1-(oxetane-3-yl)piperidine-4-yl)-1H-pyrazole-4-yl)amino)-4-(1-methylcyclopropoxy)-7H-pyrrolo[2,3-d]pyrimidine-5-carbonitrile]: less than 10 nM. Next, `CCNc1nc(Nc2ccc(C(=O)NC3CCN(C4COC4)CC3)cc2OC)nc2[nH]cc(C#N)c12` [Example 60, 4-((5-cyano-4-(ethylamino)-7H-pyrrolo[2,3-d]pyrimidine-2-yl)amino)-3-methoxy-N-(1-(oxetane-3-yl)piperidine-4-yl)benzylamide]: 10 to 100 nM; `CNc1nc(Nc2c(C)nn(C(C)(C)C#N)c2C)nc2[nH]cc(C#N)c12` [Example 77, 2-((1-(2-cyanopropane-2-yl)-3,5-dimethyl-1H-pyrazole-4-yl)amino)-4-(methylamino)-7H-pyrrolo[2,3-d]pyrimidine-5-carbonitrile]: greater than 100 nM.

The record behind these values is patent publication US11208412B2 (DAEGU-GYEONGBUK MEDICAL INNOVATION FOUNDATION, priority 2017, dated 2021).
